Data taken from PubChem BioAssay AID1963848 (Molecular Pharmacology Branch, DTP, NCI, 2024).

Tested on: 379773-124-R-J2-PDC spheroid viability
Experiment: Anticancer human tumor 379773-124-R-J2-PDC patient-derived endometrial carcinoma cell line growth inhibition [POLQ]
Settings: spheroids with HUVEC and MSC; for IC50: curve of first compound; for viability, T/C: stronger effect = lower value
Procedure, shortened: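 Complex spheroid viability model combining PDC tumour cells with endothelial (HUVEC) and MSC stromal cells. Novobiocin, ART-558 or RP6685 were tested singly and in combination with standard and investigational anticancer drugs. Each was titrated in half-log steps from near clinical Cmax, or from 10 microM where Cmax was unknown.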

[1] = second compound 0.0316 µM, first compound 0.0316 µM
[2] = second compound 0.0316 µM, first compound 0.1 µM
[3] = second compound 0.0316 µM, first compound 0.316 µM
[4] = second compound 0.0316 µM, first compound 1 µM
[5] = second compound 0.0316 µM, first compound 3.16 µM
[6] = second compound 0.0316 µM, first compound 10 µM
[7] = second compound 0.1 µM, first compound 0.0316 µM
[8] = second compound 0.1 µM, first compound 0.1 µM
[9] = second compound 0.1 µM, first compound 0.316 µM
[10] = second compound 0.1 µM, first compound 1 µM
[11] = second compound 0.1 µM, first compound 3.16 µM
[12] = second compound 0.1 µM, first compound 10 µM
[13] = second compound 0.316 µM, first compound 0.0316 µM
[14] = second compound 0.316 µM, first compound 0.1 µM
[15] = second compound 0.316 µM, first compound 0.316 µM
[16] = second compound 0.316 µM, first compound 1 µM
[17] = second compound 0.316 µM, first compound 3.16 µM
[18] = second compound 0.316 µM, first compound 10 µM
[19] = second compound 1 µM, first compound 0.0316 µM
[20] = second compound 1 µM, first compound 0.1 µM
[21] = second compound 1 µM, first compound 0.316 µM
[22] = second compound 1 µM, first compound 1 µM
[23] = second compound 1 µM, first compound 3.16 µM
[24] = second compound 1 µM, first compound 10 µM
[25] = second compound 3.16 µM, first compound 0.0316 µM
[26] = second compound 3.16 µM, first compound 0.1 µM
[27] = second compound 3.16 µM, first compound 0.316 µM
[28] = second compound 3.16 µM, first compound 1 µM
[29] = second compound 3.16 µM, first compound 3.16 µM
[30] = second compound 3.16 µM, first compound 10 µM
[31] = second compound 10 µM, first compound 0.0316 µM
[32] = second compound 10 µM, first compound 0.1 µM
[33] = second compound 10 µM, first compound 0.316 µM
[34] = second compound 10 µM, first compound 1 µM
[35] = second compound 10 µM, first compound 3.16 µM
[36] = second compound 10 µM, first compound 10 µM
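Further: spheroids exposed to drugs for seven days before readout.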
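Wherever viability, T/C is given: percent viability relative to DMSO vehicle control taken as 100%.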

For `CC1COCCN1c1cc(-c2ccnn2C)c2ccnc(-c3ccn[nH]3)c2n1` (stereo not drawn) + COC1C(OC(N)=O)C(O)C(Oc2ccc3c(O)c(NC(=O)c4ccc(O)c(CC=C(C)C)c4)c(=O)oc3c2C)OC1(C)C, the IC50 (second compound 0.0316 µM) was 76.8 nM, the IC50 (second compound 0.1 µM) was 81.1 nM and the IC50 (second compound 0.316 µM) was 104 nM. It also gave an IC50 (second compound 1 µM) of 73.9 nM, an IC50 (second compound 3.16 µM) of 111 nM and an IC50 (second compound 10 µM) of 82.7 nM. It also gave a viability, T/C [1] of 75.7%, a viability, T/C [2] of 42.4% and a viability, T/C [3] of 10.5%. The viability, T/C [4] was 9.05%, the viability, T/C [5] was 8.71% and the viability, T/C [6] was 5.49%. It also gave a viability, T/C [7] of 85.5%, a viability, T/C [8] of 42.1% and a viability, T/C [9] of 9.78%. It also gave a viability, T/C [10] of 8.09%, a viability, T/C [11] of 9.06% and a viability, T/C [12] of 6.55%. The viability, T/C [13] was 82.7%, the viability, T/C [14] was 51.4% and the viability, T/C [15] was 11.2%. It also gave a viability, T/C [16] of 7.55%, a viability, T/C [17] of 8.92% and a viability, T/C [18] of 7.56%. For the same compound, the viability, T/C [19] was 83.3%, the viability, T/C [20] was 38.1% and the viability, T/C [21] was 9.64%. For the same compound, the viability, T/C [22] was 8.17%, the viability, T/C [23] was 9.6% and the viability, T/C [24] was 5.36%. The viability, T/C [25] was 64.1%, the viability, T/C [26] was 54% and the viability, T/C [27] was 11.1%. For the same compound, the viability, T/C [28] was 7.3%, the viability, T/C [29] was 8.49% and the viability, T/C [30] was 6.71%. The viability, T/C [31] was 86.9%, the viability, T/C [32] was 42.7% and the viability, T/C [33] was 10.4%. It also gave a viability, T/C [34] of 7.51%, a viability, T/C [35] of 9.13% and a viability, T/C [36] of 5.64%.

Compound `C#Cc1c(F)ccc2cc(O)cc(-c3ncc4c(N5CC6CCC(C5)N6)nc(OCC56CCCN5CC(F)C6)nc4c3F)c12` (stereo not drawn) + COC1C(OC(N)=O)C(O)C(Oc2ccc3c(O)c(NC(=O)c4ccc(O)c(CC=C(C)C)c4)c(=O)oc3c2C)OC1(C)C has an IC50 (second compound 0.0316 µM) greater than 10000 nM, an IC50 (second compound 0.1 µM) greater than 10000 nM and an IC50 (second compound 0.316 µM) greater than 10000 nM. The IC50 (second compound 1 µM) was greater than 10000 nM, the IC50 (second compound 3.16 µM) was greater than 10000 nM and the IC50 (second compound 10 µM) was greater than 10000 nM. It also gave a viability, T/C [1] of 89%, a viability, T/C [2] of 85.8% and a viability, T/C [3] of 84.4%. It also gave a viability, T/C [4] of 81%, a viability, T/C [5] of 97.9% and a viability, T/C [6] of 88.6%. For the same compound, the viability, T/C [7] was 95.8%, the viability, T/C [8] was 78.2% and the viability, T/C [9] was 92.1%. The viability, T/C [10] was 75.5%, the viability, T/C [11] was 77.4% and the viability, T/C [12] was 95%. It also gave a viability, T/C [13] of 91%, a viability, T/C [14] of 83.9% and a viability, T/C [15] of 79.7%. The viability, T/C [16] was 84.5%, the viability, T/C [17] was 87.6% and the viability, T/C [18] was 93.4%. The viability, T/C [19] was 80.8%, the viability, T/C [20] was 84.3% and the viability, T/C [21] was 89.9%. It also gave a viability, T/C [22] of 86.8%, a viability, T/C [23] of 75% and a viability, T/C [24] of 93.9%. The viability, T/C [25] was 78.5%, the viability, T/C [26] was 81.7% and the viability, T/C [27] was 90.2%. It also gave a viability, T/C [28] of 78.5%, a viability, T/C [29] of 89.7% and a viability, T/C [30] of 96.8%. It also gave a viability, T/C [31] of 75.3%, a viability, T/C [32] of 85.8% and a viability, T/C [33] of 103%. For the same compound, the viability, T/C [34] was 79.4%, the viability, T/C [35] was 75.8% and the viability, T/C [36] was 106%.

For `C=CC(=O)N1CCN(c2nc(=O)n(-c3c(C)ccnc3C(C)C)c3nc(-c4c(O)cccc4F)c(F)cc23)C(C)C1` (stereo not drawn) + Cc1cccc(N(C)C(=O)C2C(O)CCN2c2nc(C)cc(C(F)(F)F)c2C#N)c1, the IC50 (second compound 0.0316 µM) was greater than 10000 nM, the IC50 (second compound 0.1 µM) was greater than 10000 nM and the IC50 (second compound 0.316 µM) was greater than 10000 nM. For the same compound, the IC50 (second compound 1 µM) was greater than 10000 nM, the IC50 (second compound 3.16 µM) was greater than 10000 nM and the IC50 (second compound 10 µM) was greater than 10000 nM. The viability, T/C [1] was 88.5%, the viability, T/C [2] was 89.8% and the viability, T/C [3] was 82%. It also gave a viability, T/C [4] of 105%, a viability, T/C [5] of 77.1% and a viability, T/C [6] of 76.2%. For the same compound, the viability, T/C [7] was 84.9%, the viability, T/C [8] was 77.8% and the viability, T/C [9] was 87.7%. The viability, T/C [10] was 74.4%, the viability, T/C [11] was 80.4% and the viability, T/C [12] was 86.1%. For the same compound, the viability, T/C [13] was 91%, the viability, T/C [14] was 70.4% and the viability, T/C [15] was 82.8%. For the same compound, the viability, T/C [16] was 85%, the viability, T/C [17] was 95.8% and the viability, T/C [18] was 75.7%. The viability, T/C [19] was 80%, the viability, T/C [20] was 81.1% and the viability, T/C [21] was 95.2%. For the same compound, the viability, T/C [22] was 75.2%, the viability, T/C [23] was 87.4% and the viability, T/C [24] was 64.2%. It also gave a viability, T/C [25] of 84.4%, a viability, T/C [26] of 90.3% and a viability, T/C [27] of 87.3%. It also gave a viability, T/C [28] of 86.3%, a viability, T/C [29] of 86.6% and a viability, T/C [30] of 78.9%. The viability, T/C [31] was 78%, the viability, T/C [32] was 82.1% and the viability, T/C [33] was 91.8%. It also gave a viability, T/C [34] of 73.5%, a viability, T/C [35] of 82.8% and a viability, T/C [36] of 84.3%.

Compound `COc1cc(C2c3cc4c(cc3C(OC3OC5COC(C)OC5C(O)C3O)C3COC(=O)C23)OCO4)cc(OC)c1O` (stereo not drawn) + Cc1cccc(N(C)C(=O)C2C(O)CCN2c2nc(C)cc(C(F)(F)F)c2C#N)c1 has an IC50 (second compound 0.0316 µM) of 1190 nM, an IC50 (second compound 0.1 µM) of 1230 nM and an IC50 (second compound 0.316 µM) of 914 nM. For the same compound, the IC50 (second compound 1 µM) was 1190 nM, the IC50 (second compound 3.16 µM) was 1040 nM and the IC50 (second compound 10 µM) was 577 nM. The viability, T/C [1] was 91.2%, the viability, T/C [2] was 71.9% and the viability, T/C [3] was 82.6%. For the same compound, the viability, T/C [4] was 56.5%, the viability, T/C [5] was 12.7% and the viability, T/C [6] was 8.66%. For the same compound, the viability, T/C [7] was 82.8%, the viability, T/C [8] was 83.6% and the viability, T/C [9] was 83.8%. It also gave a viability, T/C [10] of 58%, a viability, T/C [11] of 12.7% and a viability, T/C [12] of 9.6%. The viability, T/C [13] was 86%, the viability, T/C [14] was 82% and the viability, T/C [15] was 68.4%. The viability, T/C [16] was 52.9%, the viability, T/C [17] was 12% and the viability, T/C [18] was 9.6%. For the same compound, the viability, T/C [19] was 74.4%, the viability, T/C [20] was 84.9% and the viability, T/C [21] was 71.1%. It also gave a viability, T/C [22] of 57.1%, a viability, T/C [23] of 9.91% and a viability, T/C [24] of 11.1%. For the same compound, the viability, T/C [25] was 73.3%, the viability, T/C [26] was 80.9% and the viability, T/C [27] was 77.9%. It also gave a viability, T/C [28] of 51.4%, a viability, T/C [29] of 11% and a viability, T/C [30] of 13.6%. For the same compound, the viability, T/C [31] was 77.6%, the viability, T/C [32] was 75% and the viability, T/C [33] was 66.1%. The viability, T/C [34] was 35.5%, the viability, T/C [35] was 11.9% and the viability, T/C [36] was 11.2%.
